Measured values taken from patent US10351522B2, “Sulfonamide derivative and pharmaceutically acceptable acid addition salt thereof” (UNIVERSITY OF TSUKUBA, priority 2015, dated 2019).
Read-outs that look alike come from different tables or passages of the source.

Assays:
human OX2R = target: T1, human OX2R (Homo sapiens, UniProt O43614); assay: Agonist activity against OX2R: intracellular calcium (Fura-2AM, FDSS7000) in CHOOX2R cells; type: cell-based; conditions: relative to orexin-A as full agonist (100%)
T1 construct: expressed in transfected cells; host or cells: CHO (Chinese hamster ovary) cells, line CHOOX2R, co-expressing NFAT-luciferase
T1 sequence (O43614 1-444): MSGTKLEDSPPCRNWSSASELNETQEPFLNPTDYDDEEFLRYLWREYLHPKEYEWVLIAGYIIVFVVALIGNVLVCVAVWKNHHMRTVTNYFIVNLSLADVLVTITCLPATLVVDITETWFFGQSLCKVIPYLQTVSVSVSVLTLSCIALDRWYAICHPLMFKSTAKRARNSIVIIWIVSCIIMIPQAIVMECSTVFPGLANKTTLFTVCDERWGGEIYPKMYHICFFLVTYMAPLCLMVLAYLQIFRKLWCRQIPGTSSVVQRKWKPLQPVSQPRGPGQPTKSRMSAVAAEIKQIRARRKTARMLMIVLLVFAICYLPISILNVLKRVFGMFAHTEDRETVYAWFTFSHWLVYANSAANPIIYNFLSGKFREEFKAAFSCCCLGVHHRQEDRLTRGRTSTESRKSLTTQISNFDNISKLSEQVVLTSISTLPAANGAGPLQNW
Procedure: (§1) Evaluation of Agonist Activity Against OX1R and OX2R
(§2) NAFT-luciferase gene and human OX1R gene were constitutively expressed in CHO cell, which is a cell line derived from Chinese hamster ovary to establish a cell line (CHOOX1R) and NAFT-luciferase gene and human OX2R gene were constitutively expressed in CHO cell to establish a cell line (CHOOX2R). The respective cells were seeded in a 96-well Multiplate at 10,000 cells/well and cultured in a 5% FBS (Thermo Scientific)-added DMEM medium (Sigma-Aldrich) for 48 hr. The medium was removed, an assay buffer (20 mM HEPES (Sigma-Aldrich), Hanks' balanced salt solution (Gibco), 0.1% BSA (Sigma-Aldrich), 2.5 mM probenecid acid (Wako Pure Chemical Industries, Ltd.)) (100 μL) containing 5 μM Fura-2AM (Cayman Chemical) was added, and the cells were incubated for 60 min. The buffer containing Fura-2AM was removed, and an assay buffer (75 μL) was added. An assay buffer (25 μL) containing a test compound was added thereto to start the reaction. Changes in the intracellular calcium ion concentration due to the reaction were measured by measuring the fluorescence intensity ratio by dual wavelength excitation at 340 and 380 nm, by using FDSS7000 (Hamamatsu Photonics K.K.). The test compound was dissolved in DMSO to 10 mM, and diluted with the assay buffer to a final concentration of 10^−7M to 10^−5M (final concentration of DMSO 1%).
(§3) (As used herein, Response in Table 21 to Table 27 is a value obtained by dividing the agonist activity value, when the test compound is evaluated with orexin-A as a full-agonist (maximum value of agonist activity: 100%), at 10 μM, 1.0 μM, 0.1 μM by the agonist activity value of orexin-A.)

human OX1R = target: T2, human OX1R (Homo sapiens, UniProt O43613); assay: Agonist activity against OX1R: intracellular calcium (Fura-2AM, FDSS7000) in CHOOX1R cells; type: cell-based; conditions: for Emax at 0.1 µM / Emax at 1 µM / Emax at 10 µM: read-out: Response (%) OX1R
T2 construct: expressed in transfected cells; host or cells: CHO (Chinese hamster ovary) cells, line CHOOX1R, co-expressing NFAT-luciferase
T2 sequence (O43613 1-425): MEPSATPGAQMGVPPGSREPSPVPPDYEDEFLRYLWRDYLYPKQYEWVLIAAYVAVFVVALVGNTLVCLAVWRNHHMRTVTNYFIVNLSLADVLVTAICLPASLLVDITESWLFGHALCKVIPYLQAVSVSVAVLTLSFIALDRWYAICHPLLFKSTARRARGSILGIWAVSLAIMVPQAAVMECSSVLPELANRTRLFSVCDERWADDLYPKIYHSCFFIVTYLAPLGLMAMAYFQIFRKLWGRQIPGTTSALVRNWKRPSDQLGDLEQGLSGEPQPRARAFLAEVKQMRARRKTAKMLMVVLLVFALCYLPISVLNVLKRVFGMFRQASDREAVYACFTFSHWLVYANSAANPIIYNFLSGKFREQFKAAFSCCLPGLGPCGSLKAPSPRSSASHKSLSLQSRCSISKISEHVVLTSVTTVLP
Procedure: as §1, §2, §3

[1] = 0.1 μM test compound, relative to orexin-A as full agonist (100%)
[2] = 1.0 μM test compound, relative to orexin-A as full agonist (100%)
[3] = 10 μM test compound, relative to orexin-A as full agonist (100%)
[4] = test compound 0.1 μM, relative to orexin-A as full agonist (100%)
[5] = test compound 1.0 μM, relative to orexin-A as full agonist (100%)
[6] = test compound 10 μM, relative to orexin-A as full agonist (100%)

SMILES | Response (%) OX2R (human OX2R; 0.1 μM test compound) [%] | Response (%) OX2R (human OX2R; 1.0 μM test compound) [%] | Response (%) OX2R (human OX2R; 10 μM test compound) [%] | Response (%) OX1R (human OX1R; [1]) [%] | Response (%) OX1R (human OX1R; [2]) [%] | Response (%) OX1R (human OX1R; [3]) [%] | also measured
COc1ccc(-c2cccc(C(=O)N(C)C)c2)cc1S(=O)(=O)Nc1cccc(NC(=O)Nc2ccccc2)c1 [Example 37, 4′-methoxy-N,N-dimethyl-3′-(N-(3-(3-phenylureido)phenyl)sulfamoyl)-[1,1′-biphenyl]-3-carboxamide] | 55 | 88 | 81 |  |  |  | Emax at 0.1 µM (human OX1R; [1]): < 5%; Emax at 1 µM (human OX1R; [2]): < 5%; Emax at 10 µM (human OX1R; [3]): < 5%
COc1ccc(-c2cccc(C(=O)N(C)C)c2)cc1S(=O)(=O)Nc1cccc(NCc2ccc(C)cc2)c1 [Example 27] | 90 | 126 | 92 | <5 | 24 | 70 | 
COc1ccc(-c2cccc(C(=O)N(C)C)c2)cc1S(=O)(=O)Nc1cccc(Nc2ccccc2)c1 [Example 30, 4′-methoxy-N,N-dimethyl-3′-(N-(3-(phenylamino)phenyl)sulfamoyl)-[1,1′-biphenyl]-3-carboxamide] | <5 | <5 | 39 |  |  |  | Emax at 0.1 µM (human OX1R): < 5%; Emax at 1 µM (human OX1R): < 5%; Emax at 10 µM (human OX1R): < 5%
COc1ccc(-c2cccc(C(=O)N(C)C)c2)cc1S(=O)(=O)Nc1cccc(NC(=O)Nc2ccc(Br)cc2)c1 [Example 42] | 93 | 109 | 95 | <5 | <5 | <5 | 
COc1ccc(NC(=O)Nc2cccc(NS(=O)(=O)c3cc(-c4cccc(C(=O)N(C)C)c4)ccc3OC)c2)cc1 [Example 53] | 98 | 95 | 100 | <8 | 6 | 26 | 
COc1ccc(-c2cccc(C(=O)N(C)C)c2)cc1S(=O)(=O)Nc1cccc(NC(=O)Nc2cccc(Br)c2)c1 [Example 50] | 100 | 94 | 97 | <5 | <5 | <5 | 
COc1ccccc1C(=O)Nc1cccc(NS(=O)(=O)c2cc(-c3cccc(C(=O)N(C)C)c3)ccc2OC)c1 [Example 18] | <5 | 6 | 44 | <5 | <5 | 15 | 
COc1ccc(-c2cccc(C(=O)N(C)C)c2)cc1S(=O)(=O)Nc1cccc(Nc2c(Nc3ccc(C)cc3)c(=O)c2=O)c1 [Example 84] |  |  |  |  |  |  | Response (%) OX2R (human OX2R; test compound 0.1 μM): 6%; Response (%) OX2R (human OX2R; test compound 1.0 μM): 6%; Response (%) OX2R (human OX2R; test compound 10 μM): 21%; Response (%) OX1R (human OX1R; [4]): <5%; Response (%) OX1R (human OX1R; [5]): <5%; Response (%) OX1R (human OX1R; [6]): 10%
COc1cccc(Nc2cccc(NS(=O)(=O)c3cc(-c4cccc(C(=O)N(C)C)c4)ccc3OC)c2)c1 [Example 32] | 13 | 79 | 88 | <5 | <5 | 14 | 
COc1ccc(C(=O)N(C)C)cc1S(=O)(=O)Nc1cccc(NC(=O)Nc2ccccc2N(C)C)c1 [Example 114] |  |  |  |  |  |  | Response (%) OX2R (human OX2R; test compound 0.1 μM): <5%; Response (%) OX2R (human OX2R; test compound 1.0 μM): <5%; Response (%) OX2R (human OX2R; test compound 10 μM): 28%; Response (%) OX1R (human OX1R; [4]): <5%; Response (%) OX1R (human OX1R; [5]): <5%; Response (%) OX1R (human OX1R; [6]): <5%
COc1ccc(-c2cccc(C(=O)N(C)C)c2)cc1S(=O)(=O)Nc1cccc(N2CCN(c3ccc(N(C)C)cc3)C2=O)c1 [Example 131] |  |  |  |  |  |  | Response (%) OX2R (human OX2R; test compound 0.1 μM): 43%; Response (%) OX2R (human OX2R; test compound 1.0 μM): 96%; Response (%) OX2R (human OX2R; test compound 10 μM): 101%; Response (%) OX1R (human OX1R; [4]): <5%; Response (%) OX1R (human OX1R; [5]): <5%; Response (%) OX1R (human OX1R; [6]): 18%
COC(=O)c1cccc(NC(=O)Nc2cccc(NS(=O)(=O)c3cc(-c4cccc(C(=O)N(C)C)c4)ccc3OC)c2)c1 [Example 45] | 82 | 97 | 100 | <5 | <5 | <5 | 
COc1ccc(-c2cccc(C(=O)N(C)C)c2)cc1S(=O)(=O)Nc1cccc(NC(=S)Nc2cccc(C)c2)c1 [Example 76] | 93 | 90 | 89 | <5 | 20 | 55 | 
COc1ccc(-c2cccc(C(=O)N(C)C)c2)cc1S(=O)(=O)Nc1cccc(Nc2cccc(C(F)(F)F)c2)c1 [Example 35] | <5 | 35 | 63 | <5 | <5 | <5 | 
COc1ccc(-c2cccc(C(=O)N(C)C)c2)cc1S(=O)(=O)Nc1cccc(NS(=O)(=O)Nc2cccc(C)c2)c1 [Example 90] |  |  |  |  |  |  | Response (%) OX2R (human OX2R; test compound 0.1 μM): <5%; Response (%) OX2R (human OX2R; test compound 1.0 μM): 56%; Response (%) OX2R (human OX2R; test compound 10 μM): 89%; Response (%) OX1R (human OX1R; [4]): <5%; Response (%) OX1R (human OX1R; [5]): <5%; Response (%) OX1R (human OX1R; [6]): <5%
COc1ccc(CNc2cccc(NS(=O)(=O)c3cc(-c4cccc(C(=O)N(C)C)c4)ccc3OC)c2)cc1 [Example 22] | 57 | 61 | 48 | <5 | 47 | 82 | 
COc1ccc(-c2cccc(C(=O)N(C)C)c2)cc1S(=O)(=O)Nc1cccc(NC(=O)Nc2ccc(NC(=N)N)cc2)c1 [Example 60] | <5 | <5 | 31 | <5 | <5 | <5 | 
COc1ccc(C(=O)NCCCNC(=O)OC(C)(C)C)cc1S(=O)(=O)Nc1cccc(NC(=O)Nc2ccccc2N(C)C)c1 [Example 112, tert-butyl (3-(3-(N-(3-(3-(2-(dimethylamino)phenyl)ureido)phenyl)sulfamoyl)-4-methoxybenzamido)propyl)carbamate] |  |  |  |  |  |  | Response (%) OX2R (human OX2R; test compound 0.1 μM): <5%; Response (%) OX2R (human OX2R; test compound 1.0 μM): 26%; Response (%) OX2R (human OX2R; test compound 10 μM): 69%; Emax at 0.1 µM (human OX1R; [4]): < 5%; Emax at 1 µM (human OX1R; [5]): < 5%; Emax at 10 µM (human OX1R; [6]): < 5%
COc1ccc(-c2cccc(C(=O)N(C)C)c2)cc1S(=O)(=O)Nc1cccc(NC(=O)OCc2ccccc2)c1 [Example 73] | 25 | 49 | 11 | 6 | 6 | <5 | 
